The text below walks through data of patent US20230002361A1, “2H-INDAZOLE DERIVATIVES AND THEIR USE IN THE TREATMENT OF DISEASE” (BIOGEN MA INC., priority 2019, published 2023).

Counter-ions that a name gives are not always drawn.

In one series the target is T1, IRAK4 (Homo sapiens, UniProt Q9NWZ3).
T1 construct: with 0.1 nM IRAK4, 1.6 μM of biotinylated peptide substrate and 10 μM ATP
T1 sequence (Q9NWZ3 1-460): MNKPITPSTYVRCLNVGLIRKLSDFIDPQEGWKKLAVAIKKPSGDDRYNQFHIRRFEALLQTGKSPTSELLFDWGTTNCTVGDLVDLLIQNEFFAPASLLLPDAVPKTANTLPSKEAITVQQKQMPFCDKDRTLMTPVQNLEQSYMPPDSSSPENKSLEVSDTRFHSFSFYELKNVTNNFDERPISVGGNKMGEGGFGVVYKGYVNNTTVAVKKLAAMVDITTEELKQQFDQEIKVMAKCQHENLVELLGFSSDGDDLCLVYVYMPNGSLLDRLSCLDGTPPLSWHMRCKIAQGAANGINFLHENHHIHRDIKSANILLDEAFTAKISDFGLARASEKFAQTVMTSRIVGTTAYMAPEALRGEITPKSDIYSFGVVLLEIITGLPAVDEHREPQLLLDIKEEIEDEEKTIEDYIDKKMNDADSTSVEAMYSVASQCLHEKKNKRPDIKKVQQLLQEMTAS
In words: IRAK4 MSD Biochemical Assay (1 mM ATP, 2 h). To be noted: room temperature, read-out: IRAK4 MSD Biochemical Assay (1 mM ATP, 2 h) IC50. The protocol: The 2-hour 10 μM ATP Biochemical Assay employs a MesoScale Detection (MSD) format.
The activity is quenched with 11 μl of 70 mM EDTA, pH 8.
To detect the phosphorylated biotinylated peptide substrate, 30 μl of the quenched reaction mixture is added to equivalent wells of a 384 well streptavidin coated MesoScale plate (Meso Scale Discovery #L21SA-1). After a 1 hour incubation of the plate for 1 hour at room temperature with gentle mixing, the plate wells are washed 3 times with 50 mM Tris, pH 7.5, 150 mM NaCl, 0.02% Tween-20.
A 25 μl volume of 1:500 anti-P-Threonine Rabbit polyclonal Antibody plus 1:500 Goat-anti-Rabbit Sulfo Tag Antibody (Meso Scale Discovery R32AB-1) in 50 mM Tris, pH 7.5, 150 mM NaCl, 0.02% Tween-20 plus 2% BSA is then added to each well. After a 1-hour incubation of the plate for 1 hour at room temperature with gentle mixing, the plate wells are washed, 3 times with 50 mM Tris, pH 7.5, 150 mM NaCl, 0.02% Tween-20. A 40 μl volume of 2×MSD Read Buffer (Meso Scale Discovery R92TC-1) is added to each well, and the plate is read immediately in an MSD Plate Reader (Meso Scale Discovery).
The 2-hour 1 mM ATP IRAK4 Biochemical assay was performed as described above, but with […] IRAK4 and 1 mM ATP.

The target in another series is T2, MDR1 (P-gp) (Homo sapiens, UniProt P08183).
T2 construct: host or cells: MDCK cells
T2 sequence (P08183 whole entry): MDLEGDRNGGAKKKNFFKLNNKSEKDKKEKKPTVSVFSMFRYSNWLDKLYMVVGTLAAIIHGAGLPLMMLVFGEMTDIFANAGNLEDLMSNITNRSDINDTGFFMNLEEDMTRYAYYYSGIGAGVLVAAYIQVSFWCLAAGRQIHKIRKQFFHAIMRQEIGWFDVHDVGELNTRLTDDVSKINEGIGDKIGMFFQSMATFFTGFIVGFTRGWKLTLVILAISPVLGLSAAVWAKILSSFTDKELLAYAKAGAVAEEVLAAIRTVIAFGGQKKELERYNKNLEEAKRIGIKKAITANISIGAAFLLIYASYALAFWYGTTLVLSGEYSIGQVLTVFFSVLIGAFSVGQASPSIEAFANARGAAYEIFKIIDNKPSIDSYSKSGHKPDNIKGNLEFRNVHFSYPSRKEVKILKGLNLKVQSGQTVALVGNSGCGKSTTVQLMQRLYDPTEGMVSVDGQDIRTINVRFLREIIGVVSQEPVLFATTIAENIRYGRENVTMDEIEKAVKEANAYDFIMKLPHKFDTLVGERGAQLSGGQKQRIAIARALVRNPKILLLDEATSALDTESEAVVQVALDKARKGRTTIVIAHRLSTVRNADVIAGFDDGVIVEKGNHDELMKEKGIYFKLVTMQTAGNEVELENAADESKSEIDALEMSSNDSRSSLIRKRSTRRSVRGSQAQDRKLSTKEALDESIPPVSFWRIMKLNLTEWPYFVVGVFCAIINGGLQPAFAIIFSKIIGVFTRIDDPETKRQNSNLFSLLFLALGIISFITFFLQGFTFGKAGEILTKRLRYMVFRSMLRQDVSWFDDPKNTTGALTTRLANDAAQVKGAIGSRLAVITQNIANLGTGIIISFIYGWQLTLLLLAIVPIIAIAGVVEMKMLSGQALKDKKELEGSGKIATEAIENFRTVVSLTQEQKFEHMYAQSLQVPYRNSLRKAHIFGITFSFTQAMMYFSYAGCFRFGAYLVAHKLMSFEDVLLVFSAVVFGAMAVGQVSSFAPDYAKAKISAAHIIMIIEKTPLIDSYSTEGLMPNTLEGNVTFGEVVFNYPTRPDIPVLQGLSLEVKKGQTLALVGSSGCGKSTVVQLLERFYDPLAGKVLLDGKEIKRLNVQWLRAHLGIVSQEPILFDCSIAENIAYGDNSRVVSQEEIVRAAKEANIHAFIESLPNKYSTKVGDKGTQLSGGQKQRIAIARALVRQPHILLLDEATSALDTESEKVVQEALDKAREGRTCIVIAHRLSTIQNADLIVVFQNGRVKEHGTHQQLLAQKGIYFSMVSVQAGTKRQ
As to the kind of experiment: MDR1-MDCK assay (efflux ratio). Format: in vitro ADME. To be noted: human, MDCK-MDR1, 1 μM compound, 120 minutes incubation; read-out: MDR1-MDCK Efflux Ratio; (B-A/A-B). As for the experimental part:
• The assay makes use of human MDR1 transfected MDCK cells (NIH cell line in-licensed from Absorption Systems) • The compounds are tested at 1 μM concentration prepared in transport buffer (Hank's balanced salt solution with HEPES) • MDR1-MDCK cell are cultured for 7 days in 96 well transwell insert plates (Corning). Insert plates are washed before the assay and TEER (Trans epithelial electric resistance) is measured. • These plates are loaded with test compound solution 85 μL for A-B transport and 260 μL for B-A transport in the respective donor compartment.
Mass balance=100×((Vr×Cr^final)+(Vd×Cd^final))/(Vd×CE) • Where: • dCr/dt is the cumulative concentration in the receiver compartment versus time in μM s^−1 • Vr is the volume of the receiver compartment in cm^3 • Vd is the volume of the donor compartment in cm^3 • A is the area of the insert (0.143 cm^2 for 96-well insert) • CE is the estimated experimental concentration (Time=0) of the dosing solution • Cr^final is the concentration of the receiver at the end of the incubation period • Cd^final is the concentration of the donor at the end of the incubation period.

For orientation: IC50 means the concentration needed to halve the response being measured. Consider `COc1cc2nn(C3CCOCC3)cc2cc1C(=O)Nc1cccc(C(F)F)n1.Cl` [Example 24, N-(6-(difluoromethyl)pyridin-2-yl)-6-methoxy-2-(tetrahydro-2H-pyran-4-yl)-2H-indazole-5-carboxamide Hydrochloride], for which the IC50 on IRAK4 is 6.3 nM. In addition, at MDR1 (P-gp), the efflux ratio at 120 min, 1 μM turned out to be 0.7.
The like results for `COc1ncccc1NC(=O)c1cc2cn(CCC(C)(C)O)nc2nc1OC(C)C` [Example 40, 2-(3-Hydroxy-3-methylbutyl)-6-isopropoxy-N-(2-methoxypyridin-3-yl)-2H-pyrazolo[3,4-b]pyridine-5-carboxamide] were, in that order, 0.7 nM and 5.7.
The like results for `CC(C)Oc1cc2nn(C34CCC(C)(C3)OC4)cc2cc1C(=O)Nc1ccn(C)n1` (stereo not drawn) [Example 101, 6-Isopropoxy-N-(1-methyl-1H-pyrazol-3-yl)-2-(1-methyl-2-oxabicyclo[2.2.1]heptan-4-yl)-2H-indazole-5-carboxamide] were, in that order, 4.1 nM and 1.5.
Regarding `CC(C)Oc1cc2nn(C3CCOCC3)cc2cc1C(=O)Nc1cccnc1OC(F)F.Cl` [Example 70, N-(2-(difluoromethoxy)pyridin-3-yl)-6-isopropoxy-2-(tetrahydro-2H-pyran-4-yl)-2H-indazole-5-carboxamide hydrochloride], on IRAK4, the IC50 was 8.7 nM. In addition, the efflux ratio at 120 min, 1 μM at MDR1 (P-gp) worked out at 1.1.
On the same counts, the results for `CC(C)Oc1cc2nn(C34CCC(C)(C3)OC4)cc2cc1C(=O)Nc1cnn2cccnc12` (stereo not drawn) [Example 98, 6-Isopropoxy-2-(1-methyl-2-oxabicyclo[2.2.1]heptan-4-yl)-N-(pyrazolo[1,5-a]pyrimidin-3-yl)-2H-indazole-5-carboxamide] are 0.5 nM and 1.
The like results for `COc1cc2nn(CC3CCOC3)cc2cc1C(=O)Nc1ccccn1.O=C(O)C(F)(F)F` (stereo not drawn) [Example 2, 6-Methoxy-N-(pyridin-2-yl)-2-((tetrahydrofuran-3-yl)methyl)-2H-indazole-5-carboxamide trifluoroacetate] were, in that order, 373 nM and 1.7.
On the same counts, the results for `COc1cccc(NC(=O)c2cc3cn(C[C@H]4CCOC4)nc3cc2OC)n1` (single isomer, unassigned) [Example 23] are 51.3 nM and 0.8.
With `CC(C)Oc1cc2nn([C@@H]3CCOC3)cc2cc1C(=O)Nc1cccc(C(F)F)n1` (single isomer, unassigned) [Example 45], the IC50 on IRAK4 is 2.1 nM. Also, the efflux ratio at 120 min, 1 μM at MDR1 (P-gp) came to 1.
Take `Cc1cccc(NC(=O)c2cc3cn(C4CCOCC4)nc3cc2OC(C)C)c1F` [Example 68, N-(2-fluoro-3-methylphenyl)-6-isopropoxy-2-(tetrahydro-2H-pyran-4-yl)-2H-indazole-5-carboxamide]: the IC50 on IRAK4 was determined as 2 nM. The efflux ratio at 120 min, 1 μM on MDR1 (P-gp) came to 1.4.
Turning to `CC(C)Oc1cc2nn([C@H]3CCCOC3)cc2cc1C(=O)Nc1cccc(C(F)F)n1` (single isomer, unassigned) [Example 42], on IRAK4, the IC50 is 0.4 nM. Besides, on MDR1 (P-gp), the efflux ratio at 120 min, 1 μM worked out at 0.9.
`CC(C)Oc1cc2nn([C@@]34CC[C@@](C)(C3)OC4)cc2cc1C(=O)Nc1cnn2cccnc12` (single isomer, unassigned) [Example 128]: the IC50 at IRAK4 was 0.5 nM. The efflux ratio at 120 min, 1 μM on MDR1 (P-gp) stood at 1.4.
On the same counts, the results for `COc1cccc(NC(=O)c2cc(OC)c3nn(C4CCOCC4)cc3c2)n1.Cl` [Example 16, 7-Methoxy-N-(6-methoxypyridin-2-yl)-2-(tetrahydro-2H-pyran-4-yl)-2H-indazole-5-carboxamide hydrochloride] are 211 nM and 3.
On the same counts, the results for `COc1cccc(NC(=O)c2cc3cn(C4CCOCC4)nc3cc2OC(C)C)n1` [Example 66, 6-Isopropoxy-N-(6-methoxypyridin-2-yl)-2-(tetrahydro-2H-pyran-4-yl)-2H-indazole-5-carboxamide] are 1.4 nM and 0.9.
The like results for `CC12CCC(n3cc4cc(C(=O)Nc5cnn6cccnc56)c(OC5CCC5)cc4n3)(CO1)C2` (single isomer, unassigned) [Example 137] were, in that order, 0.2 nM and 2.1.
On to `COc1cccc(NC(=O)c2cc(C)c3nn(CC4CCOC4)cc3c2)n1.O=C(O)C(F)(F)F` (stereo not drawn) [Example 9, N-(6-methoxypyridin-2-yl)-7-methyl-2-((tetrahydrofuran-3-yl)methyl)-2H-indazole-5-carboxamide Trifluoroacetate], for which the IC50 on IRAK4 turned out to be 2740 nM. Besides, at MDR1 (P-gp), the efflux ratio at 120 min, 1 μM amounted to 0.5.
On to `CC(C)Oc1cc2nn(C)cc2cc1C(=O)Nc1cccc(C(F)F)n1` [Example 41, N-(6-(difluoromethyl)pyridin-2-yl)-6-isopropoxy-2-methyl-2H-indazole-5-carboxamide], for which, on IRAK4, the IC50 stood at 3.2 nM. Also, the efflux ratio at 120 min, 1 μM on MDR1 (P-gp) worked out at 0.3.
The like results for `CC(C)Oc1cc2nn(C34CCC(C)(CC3)OC4)cc2cc1C(=O)Nc1cccn(C)c1=O` [Example 58, 6-Isopropoxy-N-(1-methyl-2-oxo-1,2-dihydropyridin-3-yl)-2-(1-methyl-2-oxabicyclo[2.2.2]octan-4-yl)-2H-indazole-5-carboxamide Trifluoroacetate] were, in that order, 0.4 nM and 0.9.
The like results for `CC(C)Oc1cc2nn(C3CCOCC3)cc2cc1C(=O)Nc1cccc2ccnn12` [Example 51, 6-Isopropoxy-N-(pyrazolo[1,5-a]pyridin-7-yl)-2-(tetrahydro-2H-pyran-4-yl)-2H-indazole-5-carboxamide] were, in that order, 1.3 nM and 0.9.
The like results for `CC(C)Oc1nc2nn(C3CCOCC3)cc2cc1C(=O)Nc1cnn2cccnc12` [Example 82, 6-Isopropoxy-N-(pyrazolo[1,5-a]pyrimidin-3-yl)-2-(tetrahydro-2H-pyran-4-yl)-2H-pyrazolo[3,4-b]pyridine-5-carboxamide] were, in that order, 1.2 nM and 2.6.
On to `CC(C)Oc1cc2nn(C3COC3)cc2cc1C(=O)Nc1cccc(C(F)F)n1` [Example 30, N-(6-(difluoromethyl)pyridin-2-yl)-6-isopropoxy-2-(oxetan-3-yl)-2H-indazole-5-carboxamide], for which the IC50 at IRAK4 came out at 6.2 nM. Moreover, on MDR1 (P-gp), the efflux ratio at 120 min, 1 μM was determined as 0.6.
On the same counts, the results for `CC(C)Oc1cc2nn(C34CCC(C)(CC3)OC4)cc2cc1C(=O)Nc1ccn(C)n1` [Example 103, 6-Isopropoxy-N-(1-methyl-1H-pyrazol-3-yl)-2-(1-methyl-2-oxabicyclo[2.2.2]octan-4-yl)-2H-indazole-5-carboxamide] are 1.9 nM and 0.9.
Regarding `CC(C)Oc1cc2nn([C@H]3CCOC3)cc2cc1C(=O)Nc1cccc(C(F)F)n1` (single isomer, unassigned) [Example 44], at IRAK4, the IC50 was found to be 2.2 nM. The efflux ratio at 120 min, 1 μM at MDR1 (P-gp) turned out to be 0.8.
The like results for `COc1cccc(NC(=O)c2cc3cn(CC45COC(C)(C4)C5)nc3cc2OC)n1.O=C(O)C(F)(F)F` [Example 3, 6-Methoxy-N-(6-methoxypyridin-2-yl)-2-((1-methyl-2-oxabicyclo[2.1.1]hexan-4-yl)methyl)-2H-indazole-5-carboxamide trifluoroacetate] were, in that order, 10000 nM and 0.9.
On the same counts, the results for `CC(C)Oc1nc2nn(C[C@@H]3CCOC3)cc2cc1C(=O)Nc1ccn(C(F)F)n1` (single isomer, unassigned) [Example 111] are 2.7 nM and 2.1.
